# Assay results reported in patent US9085606B2, “Beta amino acid derivatives as integrin antagonists” (Saint Louis University, priority 2012, dated 2015).
# Assays:
# [1] = target: T1, Recombinant human integrin αvβ1 (Homo sapiens, UniProt P05556+P06756); assay: Solid Phase Receptor Assay for αvβ1 Function; conditions: binding to fibronectin-coated plate; read-out: αvβ1 SPRA IC50
# T1 construct: purchased R&D Systems 6579-AV
# Method: Solid Phase Receptor Assay for αvβ1 Function.
# Wells were washed 3 times with 150 μl TBS+ and 150 μL of blocking buffer (TBS+ with 1% bovine serum albumin, Sigma A7906) were added. The plate was incubated for 1 hr at 37° C. and then washed 3× with TBS+ buffer. […] Compounds were diluted 1:100 into the integrin solution and 50 μL added to empty wells of the washed fibronectin-coated plate according to a standard template with each sample repeated in triplicate. After incubation for two hours at room temperature, the plate was washed 3× with 150 μL of TBS+ buffer. To each well, 50 μL of biotinylated anti-αv antibody (R&D Systems, BAF1219) at 1 μg/mL in TBS+/0.1% BSA were added and the plate covered and incubated for 1 hr at room temperature. After washing the plate 3× with 150 μL of TBS+ buffer, 50 μL of streptavidin-conjugated horseradish peroxidase (R&D Systems, DY998) diluted in TBS+ blocking buffer were added to the wells and the plate incubated for 20 min at room temperature. The plate was washed 3× with TBS+ buffer followed by 50 μL of TMB substrate (Sigma, T4444) added to each well and the plate incubated for 20 min at room temperature. The reaction was optionally stopped with 25 μL of Stop Solution (Sigma S5689). Plates were read by colorimetric detection at 650 nm wavelength using a Tecan Safire II plate reader.
# [2] = target: T2, Recombinant human integrin αvβ5 (Homo sapiens, UniProt P06756+P18084); assay: Solid Phase Receptor Assay for αvβ5 Function; conditions: binding to vitronectin-coated plate; read-out: αvβ5 SPRA IC50
# T2 construct: purchased R&D Systems 2528-AV
# T2 sequence (P06756 31-992 limits assumed): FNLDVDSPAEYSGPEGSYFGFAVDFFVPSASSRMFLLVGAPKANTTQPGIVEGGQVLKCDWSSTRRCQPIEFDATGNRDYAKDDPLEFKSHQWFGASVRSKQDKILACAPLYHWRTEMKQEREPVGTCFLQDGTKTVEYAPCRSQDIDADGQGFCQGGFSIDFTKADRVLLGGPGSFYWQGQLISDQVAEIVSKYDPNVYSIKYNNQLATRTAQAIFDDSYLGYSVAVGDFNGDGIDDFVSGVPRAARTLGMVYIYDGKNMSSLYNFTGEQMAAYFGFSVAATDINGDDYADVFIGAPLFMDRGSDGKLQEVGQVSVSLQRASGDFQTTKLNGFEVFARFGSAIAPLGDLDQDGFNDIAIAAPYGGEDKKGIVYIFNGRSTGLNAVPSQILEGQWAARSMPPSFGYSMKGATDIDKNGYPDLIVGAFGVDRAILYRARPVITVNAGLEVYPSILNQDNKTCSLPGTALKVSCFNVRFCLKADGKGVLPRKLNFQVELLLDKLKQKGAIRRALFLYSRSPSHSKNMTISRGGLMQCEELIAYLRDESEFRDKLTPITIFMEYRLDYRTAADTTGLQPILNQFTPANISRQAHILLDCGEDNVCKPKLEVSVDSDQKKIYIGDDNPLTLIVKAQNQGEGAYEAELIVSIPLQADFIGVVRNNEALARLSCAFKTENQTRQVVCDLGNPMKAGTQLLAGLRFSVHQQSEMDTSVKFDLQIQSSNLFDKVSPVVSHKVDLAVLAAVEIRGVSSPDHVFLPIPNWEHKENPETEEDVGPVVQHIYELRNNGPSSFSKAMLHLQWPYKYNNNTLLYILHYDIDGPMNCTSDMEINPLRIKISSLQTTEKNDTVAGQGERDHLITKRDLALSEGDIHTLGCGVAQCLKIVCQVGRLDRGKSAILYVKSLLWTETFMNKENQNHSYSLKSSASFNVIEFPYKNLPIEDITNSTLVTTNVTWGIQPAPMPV
# T2 sequence (P18084 24-719 limits assumed): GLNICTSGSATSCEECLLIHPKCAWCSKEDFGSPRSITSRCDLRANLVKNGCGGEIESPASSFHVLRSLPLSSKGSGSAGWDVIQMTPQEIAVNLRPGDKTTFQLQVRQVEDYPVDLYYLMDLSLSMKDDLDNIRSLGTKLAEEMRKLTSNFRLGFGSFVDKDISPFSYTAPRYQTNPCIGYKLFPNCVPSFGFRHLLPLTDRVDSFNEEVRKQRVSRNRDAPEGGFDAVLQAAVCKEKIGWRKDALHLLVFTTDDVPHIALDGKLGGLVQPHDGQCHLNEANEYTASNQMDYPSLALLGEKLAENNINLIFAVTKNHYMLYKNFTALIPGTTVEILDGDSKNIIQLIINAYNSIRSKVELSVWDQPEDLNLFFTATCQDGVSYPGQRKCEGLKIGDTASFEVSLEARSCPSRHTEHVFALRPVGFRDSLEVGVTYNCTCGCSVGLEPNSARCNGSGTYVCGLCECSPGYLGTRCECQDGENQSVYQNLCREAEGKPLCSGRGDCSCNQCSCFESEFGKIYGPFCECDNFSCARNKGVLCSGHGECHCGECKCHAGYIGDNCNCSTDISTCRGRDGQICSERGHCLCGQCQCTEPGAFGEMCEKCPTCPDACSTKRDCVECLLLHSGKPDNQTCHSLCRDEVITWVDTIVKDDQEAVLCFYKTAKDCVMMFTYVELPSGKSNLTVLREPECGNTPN
# Method: Solid Phase Receptor Assay for αvβ5 Function.
# (§1) Wells were washed 3 times with 150 μL TBS+ and 150 μL of blocking buffer (TBS+ with 1% bovine serum albumin, Sigma A7906) were added. The plate was incubated for 1 hr at 37° C. and then washed 3× with TBS+ buffer. […] Compounds were diluted 1:100 into the integrin solution and then 50 μL added to empty wells of the washed vitronectin-coated plate according to a standard template with each sample repeated in triplicate. After incubation for two hours at room temperature, the plate was washed 3× with 150 μL of TBS+ buffer. To each well, 50 μL of biotinylated anti-αv antibody (R&D Systems, BAF1219) at 0.5 μg/mL in TBS+/0.1% BSA at 0.5 μg/mL were added and the plate covered and incubated for 1 hr at room temperature. After washing the plate 3× with 150 μL of TBS+ buffer, 50 μL of streptavidin-conjugated horseradish peroxidase (R&D Systems DY998) diluted in TBS+ blocking buffer were added to the wells and the plate incubated for 20 min at room temperature. The plate was washed 3× with TBS+ buffer followed by 50 μL of TMB substrate (Sigma T4444) added to each well and the plate incubated for 20 min at room temperature. The reaction was optionally stopped with 25 μL of Stop Solution (Sigma S5689). Plates were read by colorimetric detection at 650 nm wavelength using a Tecan Safire II plate reader.
# [3] = target: T3, Recombinant human integrin αvβ3 (Homo sapiens, UniProt P05106+P06756); assay: Solid Phase Receptor Assay for αvβ3 Function; conditions: binding to vitronectin-coated plate; read-out: αvβ3 SPRA IC50
# T3 construct: purchased R&D Systems 3050-AV
# T3 sequence (P06756 31-992 limits assumed): as the sequence (P06756 31-992 limits assumed) above
# T3 sequence (P05106 27-718 limits assumed): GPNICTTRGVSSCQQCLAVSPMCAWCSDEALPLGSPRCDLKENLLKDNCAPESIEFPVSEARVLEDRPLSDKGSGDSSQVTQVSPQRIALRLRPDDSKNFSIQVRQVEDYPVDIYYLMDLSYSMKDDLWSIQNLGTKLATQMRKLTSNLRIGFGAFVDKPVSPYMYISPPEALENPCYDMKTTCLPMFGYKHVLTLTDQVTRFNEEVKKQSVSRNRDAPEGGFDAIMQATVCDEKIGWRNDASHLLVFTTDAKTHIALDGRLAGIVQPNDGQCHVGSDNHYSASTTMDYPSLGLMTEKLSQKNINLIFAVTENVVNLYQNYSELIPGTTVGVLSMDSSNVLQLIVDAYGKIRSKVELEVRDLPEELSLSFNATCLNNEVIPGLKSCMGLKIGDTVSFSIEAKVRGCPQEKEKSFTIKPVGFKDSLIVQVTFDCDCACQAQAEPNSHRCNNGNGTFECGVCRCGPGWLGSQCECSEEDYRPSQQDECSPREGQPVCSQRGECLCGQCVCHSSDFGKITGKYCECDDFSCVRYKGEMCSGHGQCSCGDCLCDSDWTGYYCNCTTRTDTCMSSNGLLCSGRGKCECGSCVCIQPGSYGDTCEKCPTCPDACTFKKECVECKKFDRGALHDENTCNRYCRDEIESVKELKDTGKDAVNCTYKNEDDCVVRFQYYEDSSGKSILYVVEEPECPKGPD
# Method: Solid Phase Receptor Assay for αvβ3 Function.
# Wells were washed 3 times with 150 μL TBS+ and 150 μL of blocking buffer (TBS+ with 1% bovine serum albumin, Sigma A7906) were added. The plate was incubated for 1 hr at 37° C. and then washed 3× with TBS+ buffer. […] Compounds were diluted 1:100 into the integrin solution and then 50 μL added to empty wells of the washed vitronectin-coated plate according to a standard template with each sample repeated in triplicate. After incubation for two hours at room temperature, the plate was washed 3× with 150 μL of TBS+ buffer. To each well, 50 μL of biotinylated anti-αv antibody (R&D Systems, BAF1219) at 0.5 μg/mL in TBS+/0.1% BSA were added and the plate covered and incubated for 1 hr at room temperature. After washing the plate 3× with 150 μL of TBS+ buffer, 50 μL of streptavidin-conjugated horseradish peroxidase (R&D Systems, DY998) diluted in TBS+ blocking buffer were added to the wells and the plate incubated for 20 min at room temperature. The plate was washed 3× with TBS+ buffer followed by 50 μL of TMB substrate (Sigma, T4444) added to each well and the plate was incubated for 20 min at room temperature. The reaction was optionally stopped with 25 μL of Stop Solution (Sigma, S5689). Plates were read by colorimetric detection at 650 nm wavelength using a Tecan S afire II plate reader.
# [4] = target: T4, Recombinant human integrin αvβ6 (Homo sapiens, UniProt P06756+P18564); assay: Solid Phase Receptor Assay for αvβ6 Function; conditions: binding to LAP-coated plate; read-out: αvβ6 SPRA IC50
# T4 construct: purchased R&D Systems 3817-AV
# T4 sequence (P06756 31-992 limits assumed): as the sequence (P06756 31-992 limits assumed) above
# T4 sequence (P18564 22-707 limits assumed): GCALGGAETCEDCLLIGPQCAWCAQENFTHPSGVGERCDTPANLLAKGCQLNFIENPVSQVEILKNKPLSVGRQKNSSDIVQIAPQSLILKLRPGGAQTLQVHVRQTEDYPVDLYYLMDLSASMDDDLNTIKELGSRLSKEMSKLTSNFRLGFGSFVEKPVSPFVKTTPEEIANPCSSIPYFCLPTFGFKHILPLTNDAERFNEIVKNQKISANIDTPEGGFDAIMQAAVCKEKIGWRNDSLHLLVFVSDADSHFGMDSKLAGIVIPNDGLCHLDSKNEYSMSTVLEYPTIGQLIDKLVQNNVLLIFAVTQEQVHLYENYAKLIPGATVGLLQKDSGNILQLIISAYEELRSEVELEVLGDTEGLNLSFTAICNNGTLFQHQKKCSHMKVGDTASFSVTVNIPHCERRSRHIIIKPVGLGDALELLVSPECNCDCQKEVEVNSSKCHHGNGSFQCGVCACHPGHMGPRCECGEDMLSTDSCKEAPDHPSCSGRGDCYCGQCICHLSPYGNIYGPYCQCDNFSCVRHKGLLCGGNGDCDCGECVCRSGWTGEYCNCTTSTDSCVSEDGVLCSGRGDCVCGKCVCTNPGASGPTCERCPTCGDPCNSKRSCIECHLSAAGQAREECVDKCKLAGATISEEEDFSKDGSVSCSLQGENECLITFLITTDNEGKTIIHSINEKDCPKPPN
# Method: Solid Phase Receptor Assay for αvβ6 Function.
# as §1, with “150 μL TBS+, and 150” for “150 μL TBS+ and 150”, “at 37° C., and then” for “at 37° C. and then”, “the washed LAP-coated plate according” for “the washed vitronectin-coated plate according”, “TBS+/0.1% BSA were added” for “TBS+/0.1% BSA at 0.5 μg/mL were added”, “the plate was covered and” for “the plate covered and”, “peroxidase (R&D Systems, DY998) diluted” for “peroxidase (R&D Systems DY998) diluted”
# T1 sequence (P06756 31-992 limits assumed): as the sequence (P06756 31-992 limits assumed) above
# T1 sequence (P05556 21-728 limits assumed): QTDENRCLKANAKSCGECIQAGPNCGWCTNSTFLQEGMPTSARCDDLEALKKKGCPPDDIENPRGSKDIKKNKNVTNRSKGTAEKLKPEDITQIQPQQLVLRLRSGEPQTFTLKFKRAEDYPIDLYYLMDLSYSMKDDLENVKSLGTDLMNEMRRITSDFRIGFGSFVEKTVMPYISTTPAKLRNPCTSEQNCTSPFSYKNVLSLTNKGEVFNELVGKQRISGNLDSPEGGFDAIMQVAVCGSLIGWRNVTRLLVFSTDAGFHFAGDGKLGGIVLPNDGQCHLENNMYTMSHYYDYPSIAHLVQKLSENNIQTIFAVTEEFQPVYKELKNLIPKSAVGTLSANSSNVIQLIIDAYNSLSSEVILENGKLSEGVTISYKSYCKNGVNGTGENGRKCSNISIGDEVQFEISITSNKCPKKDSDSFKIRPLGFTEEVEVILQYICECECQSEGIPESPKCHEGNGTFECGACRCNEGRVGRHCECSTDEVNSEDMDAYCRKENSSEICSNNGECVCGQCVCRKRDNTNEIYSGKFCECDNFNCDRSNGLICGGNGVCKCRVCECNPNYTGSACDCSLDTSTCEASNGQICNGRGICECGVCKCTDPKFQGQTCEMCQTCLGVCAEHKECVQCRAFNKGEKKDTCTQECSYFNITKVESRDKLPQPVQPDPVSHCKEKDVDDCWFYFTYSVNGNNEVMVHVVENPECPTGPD
SMILES,IC50 [1] [nM],IC50 [2] [nM],IC50 [3] [nM],IC50 [4] [nM]
"CC(C)(C)c1cc(Br)c(O)c([C@H](CC(=O)O)NC(=O)CNC(=O)c2cc(O)cc(NC3=NCC(O)CN3)c2)c1 (stereo partly drawn) [Example 1, (3S)-3-(3-bromo-5-(tert-butyl)-2-hydroxyphenyl)-3-(2-(3-hydroxy-5-((5-hydroxy-1,4,5,6-tetrahydropyrimidin-2-yl)amino)benzamido)acetamido)propanoic acid]",2.1,47,5.1,0.4
"CC(C)(C)c1cc(Br)cc([C@H](CC(=O)O)NC(=O)CNC(=O)c2cc(O)cc(NC3=NCC(O)CN3)c2)c1O (stereo partly drawn) [Example 2, (3S)-3-(5-bromo-3-(tert-butyl)-2-hydroxyphenyl)-3-(2-(3-hydroxy-5-((5-hydroxy-1,4,5,6-tetrahydropyrimidin-2-yl)amino)benzamido)acetamido)propanoic acid]",2.2,1,1.8,0.7
"CC(C)(O)c1cc(Br)cc([C@H](CC(=O)O)NC(=O)CNC(=O)c2cc(O)cc(NC3=NCC(O)CN3)c2)c1 (stereo partly drawn) [Example 3, (3S)-3-(3-bromo-5-(2-hydroxypropan-2-yl)phenyl)-3-(2-(3-hydroxy-5-((5-hydroxy-1,4,5,6-tetrahydropyrimidin-2-yl)amino)benzamido)acetamido)propanoic acid]",2.2,0.7,2,0.7
"CC(C)(O)c1cc(Cl)cc([C@H](CC(=O)O)NC(=O)CNC(=O)c2cc(O)cc(NC3=NCC(O)CN3)c2)c1 (stereo partly drawn) [Example 4, (3S)-3-(3-chloro-5-(2-hydroxypropan-2-yl)phenyl)-3-(2-(3-hydroxy-5-((5-hydroxy-1,4,5,6-tetrahydropyrimidin-2-yl)amino)benzamido)acetamido)propanoic acid]",1.7,0.4,2.3,0.5
"CC(C)(C)c1cc(Br)cc([C@H](CC(=O)O)NC(=O)CNC(=O)c2cccc(NC(=N)N)c2)c1 [Example 5, (S)-3-(3-bromo-5-(tert-butyl)phenyl)-3-(2-(3-guanidinobenzamido)acetamido) propanoic acid]",3.2,1.6,2.6,0.6
"CC(C)(C)c1cc(Br)cc([C@H](CC(=O)O)NC(=O)CNC(=O)c2cncc(NC(=N)N)c2)c1 [Example 6, (S)-3-(3-bromo-5-(tert-butyl)phenyl)-3-(2-(5-guanidinonicotinamido)acetamido) propanoic acid]",4.7,2.2,3.5,0.5
"CC(C)(C)c1cc(Br)cc([C@H](CC(=O)O)NC(=O)CNC(=O)c2cccc(NC3=NCCN3)c2)c1 [Example 7, (S)-3-(3-bromo-5-(tert-butyl)phenyl)-3-(2-(3-((4,5-dihydro-1H-imidazol-2-yl)amino)benzamido)acetamido)propanoic acid]",2.7,0.5,1.3,0.2
"CC(C)(C)c1cc(Br)cc([C@H](CC(=O)O)NC(=O)CNC(=O)c2cncc(NC3=NCC(O)CN3)c2)c1 (stereo partly drawn) [Example 8, (3S)-3-(3-bromo-5-(tert-butyl)phenyl)-3-(2-(5-((5-hydroxy-1,4,5,6-tetrahydropyrimidin-2-yl)amino)nicotinamido)acetamido)propanoic acid]",3,0.5,1.5,0.5
"CC(C)(C)c1cc(Br)cc([C@H](CC(=O)O)NC(=O)CNC(=O)c2cc(O)cc(NC3=NCCN3)c2)c1 [Example 9, (S)-3-(3-bromo-5-(tert-butyl)phenyl)-3-(2-(3-((4,5-dihydro-1H-imidazol-2-yl)amino)-5-hydroxybenzamido)acetamido)propanoic acid]",2.4,1.2,2.9,0.5
"CC(C)(C)c1cc([C@H](CC(=O)O)NC(=O)CNC(=O)c2cncc(NC(=N)N)c2)cc(C(C)(C)C)c1 [Example 10, (S)-3-(3,5-di-tert-butylphenyl)-3-(2-(5-guanidinonicotinamido)acetamido)propanoic acid]",2.1,71,172,1.2
"CC(C)(C#N)c1cc(Br)cc([C@H](CC(=O)O)NC(=O)CNC(=O)c2cc(O)cc(NC3=NCC(O)CN3)c2)c1 (stereo partly drawn) [Example 11, (3S)-3-(3-bromo-5-(2-cyanopropan-2-yl)phenyl)-3-(2-(3-hydroxy-5-((5-hydroxy-1,4,5,6-tetrahydropyrimidin-2-yl)amino)benzamido)acetamido)propanoic acid]",2.8,0.7,3.4,0.5
"CC(C)(C)c1cc(C#N)cc([C@H](CC(=O)O)NC(=O)CNC(=O)c2cc(O)cc(NC3=NCC(O)CN3)c2)c1 (stereo partly drawn) [Example 12, (3S)-3-(3-(tert-butyl)-5-cyanophenyl)-3-(2-(3-hydroxy-5-((5-hydroxy-1,4,5,6-tetrahydro-pyrimidin-2-yl)amino)benzamido)acetamido)propanoic acid]",2,0.2,2.8,0.4
"CC(C)(O)c1cc([C@H](CC(=O)O)NC(=O)CNC(=O)c2cc(O)cc(NC3=NCC(O)CN3)c2)cc(C(F)(F)F)c1 (stereo partly drawn) [Example 13, (3S)-3-(2-(3-hydroxy-5-((5-hydroxy-1,4,5,6-tetrahydropyrimidin-2-yl)amino)benzamido)acetamido)-3-(3-(2-hydroxypropan-2-yl)-5-(trifluoromethyl)phenyl)propanoic acid]",4,0.3,1.8,0.6
